The source of these data is patent publication US9545105B2, “1-(heterocyclic carbonyl) piperidines” (BAYER INTELLECTUAL PROPERTY GMBH, priority 2010, dated 2017).

The logP is the decadic logarithm of the partition coefficient of the neutral form, usually between octanol and water. Read a high logP as a more lipophilic compound.

In one data set the test system is Alternaria solani. In words: In vivo preventive test on Alternaria solani (tomato). To be noted: 500 ppm of active ingredient, evaluated 7 days after inoculation. On the procedure:
Solvent: 49 parts by weight of N,N-dimethylformamide Emulsifier: 1 part by weight of Alkylarylpolyglycolether To produce a suitable preparation of active compound, 1 part by weight of active compound is mixed with the stated amounts of solvent and emulsifier, and the concentrate is diluted with water to the desired concentration. To test for preventive activity, young plants are sprayed with the preparation of active compound at the stated rate of application. One day after this treatment, the plants are inoculated with an aqueous spore suspension of Alternaria solani. The plants remain for one day in an incubation cabinet at approximately 22° C. and a relative atmospheric humidity of 100%. Then the plants are placed in an incubation cabinet at approximately 20° C. and a relative atmospheric humidity of 96%. The test is evaluated 7 days after the inoculation. 0% means an efficacy which corresponds to that of the untreated control while an efficacy of 100% means that no disease is observed.

Data set [1] is described as follows: log P by HPLC on reversed-phase column (C 18), EEC Directive 79/831 Annex V.A8. To be noted: HPLC on reversed-phase column (C 18); 40° C.; 0.1% aqueous formic acid and acetonitrile; linear gradient 10% to 90% acetonitrile. The class given is physicochemical. How it is done:
In table 1, the log P values were determined in accordance with EEC Directive 79/831 Annex V.A8 by HPLC (High Performance Liquid Chromatography) on a reversed-phase column (C 18), using the method described below: Temperature: 40° C.; Mobile phases: 0.1% aqueous formic acid and acetonitrile; linear gradient from 10% acetonitrile to 90% acetonitrile. Calibration was carried out using unbranched alkan-2-ones (comprising 3 to 16 carbon atoms) with known log P values (determination of the log P values by the retention times using linear interpolation between two successive alkanones). lambda-max-values were determined using UV-spectra from 200 nm to 400 nm and the peak values of the chromatographic signals.

Another data set concerns Pyrenophora teres. Briefly: In vivo preventive test on Pyrenophora teres (barley). The note with it: 500 ppm of active ingredient, evaluated 7-9 days after inoculation. How it is done:
Solvent: 49 parts by weight of N,N-dimethylformamide Emulsifier: 1 part by weight of alkylaryl polyglycol ether To produce a suitable preparation of active compound, 1 part by weight of active compound is mixed with the stated amounts of solvent and emulsifier, and the concentrate is diluted with water to the desired concentration. To test for preventive activity, young plants are sprayed with the preparation of active compound at the stated rate of application. One day after this treatment, the plants are inoculated with an aqueous spore suspension of Pyrenophora teres. The plants remain for 48 hours in an incubation cabinet at 22° C. and a relative atmospheric humidity of 100%. Then the plants are placed in a greenhouse at a temperature of approximately 20° C. and a relative atmospheric humidity of approximately 80%. The test is evaluated 7-9 days after the inoculation. 0% means an efficacy which corresponds to that of the untreated control while an efficacy of 100% means that no disease is observed.

Regarding `Cc1ccccc1C1CCCCN1C(=O)c1c(C(F)F)nn(C)c1Cl` (stereo not drawn) [Example 5], the results for the Efficacy with Alternaria solani and with Pyrenophora teres were 90% and 95%, respectively. The molecule further came in with a logP in data set [1] of 3.37.

As to `Cc1ccc(C2CCCCN2C(=O)c2c(C(F)F)nn(C)c2Cl)cc1C` (stereo not drawn) [Example 8], the Efficacy with Alternaria solani was 94%; with Pyrenophora teres, 90%. The logP in data set [1] was 3.87.

For the molecule `Cc1cc(C)cc(C2CCCCN2C(=O)c2c(C(F)(F)F)cn(C)c2F)c1` (stereo not drawn) [Example 34], the Efficacy came out at 90% with Alternaria solani and 100% in the data set on Pyrenophora teres. Further, the logP in data set [1] turned out to be 4.27.

`Cn1nc(C(F)F)c(C(=O)N2CCCCC2c2ccccc2Cl)c1Cl` (stereo not drawn) [Example 40]: the Efficacy in the data set with Alternaria solani and in the data set on Pyrenophora teres was 95% in each case. The molecule further gave a logP in data set [1] of 3.48.

In the case of `Cn1nc(C(F)F)c(C(=O)N2CCCCC2c2cccc(Cl)c2)c1Cl` (stereo not drawn) [Example 47], the Efficacy in the data set on Alternaria solani and in the data set with Pyrenophora teres was 100% each time. Besides, the logP in data set [1] was found to be 3.60.

Take `Cn1nc(C(F)F)c(C(=O)N2CCCCC2c2ccc(Cl)cc2)c1Cl` (stereo not drawn) [Example 55]: the Efficacy is given as 95% in the data set on Alternaria solani and 80% in the data set with Pyrenophora teres. The molecule also yielded a log partition coefficient (logP) in data set [1] of 3.67.

For `Cc1cc(C(=O)N2CCCCC2c2ccc3c(c2)OCO3)c(C)o1` (stereo not drawn) [Example 58], the Efficacy in the data set with Alternaria solani was determined as 78%. The molecule further gave a logP in data set [1] of 3.33.

As to `CCc1nn(C)c(F)c1C(=O)N1CCCCC1c1ccc2c(c1)OCO2` (stereo not drawn) [Example 59], the Efficacy in the data set on Alternaria solani stood at 78%; with Pyrenophora teres it was 70%. In addition, the logP in data set [1] was determined as 2.73.

As for `Cc1nn(C)c(F)c1C(=O)N1CCCCC1c1ccc2c(c1)OCO2` (stereo not drawn) [Example 60], the values for the Efficacy with Alternaria solani and with Pyrenophora teres were 94% and 80%, respectively. The molecule also came in with a logP in data set [1] of 2.44.

In the case of `Cn1nc(C(F)F)c(C(=O)N2CCCCC2c2ccc3c(c2)OCCO3)c1F` (stereo not drawn) [Example 65], the Efficacy was found to be 90% in the data set with Alternaria solani and 100% with Pyrenophora teres. The logP in data set [1] is on record as 2.75.

Regarding `Cc1cc(C(=O)N2CCCCC2c2cccc(Cl)c2Cl)c(C)o1` (stereo not drawn) [Example 71], the Efficacy in the data set with Alternaria solani and in the data set on Pyrenophora teres was 80% each time. Moreover, the logP in data set [1] is on record as 4.29.

For the molecule `CCc1nn(C)c(F)c1C(=O)N1CCCCC1c1cccc(Cl)c1Cl` (stereo not drawn) [Example 72], the Efficacy in the data set on Alternaria solani and with Pyrenophora teres was 95% in each case. Besides, in data set [1], the logP was 3.62.

On to `Cn1nc(C(F)F)c(C(=O)N2CCCCC2c2ccc(Cl)cc2Cl)c1Cl` (stereo not drawn) [Example 80], for which the Efficacy is given as 100% with Alternaria solani and 95% in the data set on Pyrenophora teres. For the same molecule, the logP in data set [1] turned out to be 4.06.

With `Cn1nc(C(F)F)c(C(=O)N2CCCCC2c2ccccc2Br)c1Cl` (stereo not drawn) [Example 90], the Efficacy amounted to 90% with Alternaria solani and 95% with Pyrenophora teres. In data set [1], the logP is reported as 3.55.

In the case of `Cc1cc(C(=O)N2CCCCC2c2cccc(Br)c2)c(C)o1` (stereo not drawn) [Example 93], the values for the Efficacy with Alternaria solani and in the data set on Pyrenophora teres were 90% and 95%, respectively. This molecule displayed a log partition coefficient (logP) in data set [1] of 4.11.

As for `CCc1nn(C)c(F)c1C(=O)N1CCCCC1c1cccc(Br)c1` (stereo not drawn) [Example 94], the Efficacy with Alternaria solani amounted to 100%; in the data set with Pyrenophora teres, 70%. In data set [1], this molecule gave a logP of 3.44.

`Cn1nc(C(F)F)c(C(=O)N2CCCCC2c2cccc(Br)c2)c1Cl` (stereo not drawn) [Example 96]: the Efficacy in the data set with Alternaria solani and with Pyrenophora teres was 100% in each case. Moreover, the lipophilicity (logP) in data set [1] turned out to be 3.71.

As to `Cc1nn(C)c(F)c1C(=O)N1CCCCC1c1ccc(Br)cc1` (stereo not drawn) [Example 99], the figures for the Efficacy with Alternaria solani and in the data set with Pyrenophora teres were 90% and 100%, respectively. In data set [1], this molecule registered a logP of 3.11.

On to `Cn1nc(C(F)F)c(C(=O)N2CCCCC2c2ccc(Br)cc2)c1Cl` (stereo not drawn) [Example 103], for which the Efficacy with Alternaria solani is recorded as 80%; in the data set with Pyrenophora teres, 95%. In data set [1], the logP is given as 3.78.

Consider `Cn1nc(C(F)F)c(C(=O)N2CCCCC2c2ccc(Br)cc2)c1F` (stereo not drawn) [Example 104], for which the Efficacy with Alternaria solani is 100%; in the data set with Pyrenophora teres, 95%. The molecule also gave a log partition coefficient (logP) in data set [1] of 3.60.

As to `Cn1nc(C(F)F)c(C(=S)N2CCCCC2c2ccc(Br)cc2)c1F` (stereo not drawn) [Example 105], the Efficacy with Alternaria solani and in the data set on Pyrenophora teres was 100% each time. For the same molecule, in data set [1], the logP was determined as 4.29.

`CCc1noc(C)c1C(=O)N1CCCCC1c1cccc(Oc2ccccc2)c1` (stereo not drawn) [Example 110] had an Efficacy in the data set with Alternaria solani of 78%. In addition, in data set [1], the logP is 4.16.

Consider `CCc1nn(C)c(F)c1C(=O)N1CCCCC1c1cccc(Oc2ccccc2)c1` (stereo not drawn) [Example 112], for which, in the data set with Alternaria solani, the Efficacy is 94%. The molecule also registered a logP in data set [1] of 3.96.

On to `Cc1nn(C)c(F)c1C(=O)N1CCCCC1c1cccc(Oc2ccccc2)c1` (stereo not drawn) [Example 113], for which the figures for the Efficacy in the data set with Alternaria solani and in the data set on Pyrenophora teres were 94% and 90%, respectively. In addition, in data set [1], the logP is reported as 3.60.

In the case of `Cn1nc(C(F)F)c(C(=O)N2CCCCC2c2cccc(Oc3ccccc3)c2)c1Cl` (stereo not drawn) [Example 114], the Efficacy in the data set on Alternaria solani is given as 90%; in the data set with Pyrenophora teres it was 80%. Also, the logP in data set [1] is on record as 4.18.

On to `Cc1cc(C(=O)N2CCCCC2c2cccc(I)c2)c(C)o1` (stereo not drawn) [Example 116], for which, in the data set on Alternaria solani, the Efficacy worked out at 78%. The molecule also yielded a logP in data set [1] of 4.36.

Take `Cc1cc(C(=O)N2CCCCC2c2ccc3ccccc3c2)c(C)o1` (stereo not drawn) [Example 120]: the Efficacy in the data set on Alternaria solani amounted to 80%; in the data set on Pyrenophora teres, 70%. Also, the logP in data set [1] came out at 4.39.

As to `Cn1nc(C(F)F)c(C(=O)N2CCCCC2c2ccc3ccccc3c2)c1Cl` (stereo not drawn) [Example 121], the Efficacy is on record as 80% in the data set on Alternaria solani and 90% in the data set with Pyrenophora teres. This molecule returned a logP in data set [1] of 3.87.

For the molecule `Cc1nn(C)c(F)c1C(=O)N1CCCCC1c1ccc(Br)s1` (stereo not drawn) [Example 124], the Efficacy in the data set on Alternaria solani was determined as 95%; in the data set on Pyrenophora teres, 100%. The logP in data set [1] was determined as 3.13.

Regarding `CCc1nn(C)c(F)c1C(=O)N1CCCCC1c1ccc(Br)s1` (stereo not drawn) [Example 125], the Efficacy amounted to 90% in the data set with Alternaria solani and 80% with Pyrenophora teres. Besides, the logP in data set [1] is listed as 3.51.

With `Cc1nn(C)c(F)c1C(=O)N1CCCCC1Cc1ccccc1` (stereo not drawn) [Example 129], the Efficacy in the data set with Alternaria solani was 95%; in the data set on Pyrenophora teres, 100%. The same molecule returned a logP in data set [1] of 2.54.

Turning to `CCc1nn(C)c(F)c1C(=O)N1CCCCC1Cc1ccccc1` (stereo not drawn) [Example 131], the logP in data set [1] is given as 2.92. The Efficacy in the data set with Pyrenophora teres turned out to be 100%.

Turning to `Cc1cc(C(=O)N2CCCCC2Cc2ccccc2)c(C)o1` (stereo not drawn) [Example 132], the Efficacy in the data set on Alternaria solani and in the data set with Pyrenophora teres was 90% each time. For the same molecule, in data set [1], the logP came to 3.58.

With `Cn1nc(C(F)F)c(C(=O)N2CCCCC2Cc2ccccc2)c1F` (stereo not drawn) [Example 134], the Efficacy with Alternaria solani and in the data set on Pyrenophora teres was 100% throughout. Moreover, in data set [1], the logP worked out at 3.09.

As to `CCC(c1ccccc1)C1CCCCN1C(=O)c1c(C(F)F)nn(C)c1Cl` (stereo not drawn) [Example 135], the Efficacy in the data set with Alternaria solani is on record as 95%; with Pyrenophora teres, 94%. In data set [1], this molecule yielded a logP of 3.87.

In turn, `Cc1cc(C(=O)N2CCCCC2Cc2ccccc2C)c(C)o1` (stereo not drawn) [Example 141] gave an Efficacy in the data set with Alternaria solani of 90%. The same molecule showed a logP in data set [1] of 3.87.

In the case of `Cc1cccc(CC2CCCCN2C(=O)c2cc(C)oc2C)c1` (stereo not drawn) [Example 143], the Efficacy with Alternaria solani amounted to 80%. Besides, the logP in data set [1] turned out to be 3.96.

Molecule `Cc1ccc(CC2CCCCN2C(=O)c2cc(C)oc2C)cc1` (stereo not drawn) [Example 146] gave an Efficacy in the data set on Alternaria solani of 95%. The molecule also registered a logP in data set [1] of 3.99.

As to `Cc1nc(C(F)F)c(C(=O)N2CCCCC2Cc2cccc(F)c2)s1` (stereo not drawn) [Example 151], the Efficacy with Alternaria solani was 95%. In data set [1], the logP is listed as 3.19.

In the data set on Alternaria solani, `Cc1cc(C(=O)N2CCCCC2Cc2ccc(F)cc2)c(C)o1` (stereo not drawn) [Example 155] came in with an Efficacy of 78%. This molecule returned a logP in data set [1] of 3.57.

In data set [1], `COc1ccccc1CC1CCCCN1C(=O)c1sc(C)nc1C(F)F` (stereo not drawn) [Example 159] came in with a logP of 3.33. Further, the Efficacy in the data set on Pyrenophora teres was 90%.

As to `CCC(c1ccccc1Cl)C1CCCCN1C(=O)c1c(C(F)F)nn(C)c1Cl` (stereo not drawn) [Example 161], the logP in data set [1] was 4.44. In the data set with Pyrenophora teres, the Efficacy is reported as 94%.
